Molecular target: T1, LRRK2 (Homo sapiens, UniProt Q5S007)
T1 construct: purchased Thermo Fisher Scientific (Life Technologies) SelectScreen
Assay: SelectScreen Adapta
Type: biochemical
In short: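 Percent values come from Thermo SelectScreen profiling of NU5455, combining activity and binding assays. CSF1R was run in Z'LYTE format at Km app ATP, and CAMK1 in Adapta format with ATP listed at 10.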

T1 sequence (Q5S007 whole entry): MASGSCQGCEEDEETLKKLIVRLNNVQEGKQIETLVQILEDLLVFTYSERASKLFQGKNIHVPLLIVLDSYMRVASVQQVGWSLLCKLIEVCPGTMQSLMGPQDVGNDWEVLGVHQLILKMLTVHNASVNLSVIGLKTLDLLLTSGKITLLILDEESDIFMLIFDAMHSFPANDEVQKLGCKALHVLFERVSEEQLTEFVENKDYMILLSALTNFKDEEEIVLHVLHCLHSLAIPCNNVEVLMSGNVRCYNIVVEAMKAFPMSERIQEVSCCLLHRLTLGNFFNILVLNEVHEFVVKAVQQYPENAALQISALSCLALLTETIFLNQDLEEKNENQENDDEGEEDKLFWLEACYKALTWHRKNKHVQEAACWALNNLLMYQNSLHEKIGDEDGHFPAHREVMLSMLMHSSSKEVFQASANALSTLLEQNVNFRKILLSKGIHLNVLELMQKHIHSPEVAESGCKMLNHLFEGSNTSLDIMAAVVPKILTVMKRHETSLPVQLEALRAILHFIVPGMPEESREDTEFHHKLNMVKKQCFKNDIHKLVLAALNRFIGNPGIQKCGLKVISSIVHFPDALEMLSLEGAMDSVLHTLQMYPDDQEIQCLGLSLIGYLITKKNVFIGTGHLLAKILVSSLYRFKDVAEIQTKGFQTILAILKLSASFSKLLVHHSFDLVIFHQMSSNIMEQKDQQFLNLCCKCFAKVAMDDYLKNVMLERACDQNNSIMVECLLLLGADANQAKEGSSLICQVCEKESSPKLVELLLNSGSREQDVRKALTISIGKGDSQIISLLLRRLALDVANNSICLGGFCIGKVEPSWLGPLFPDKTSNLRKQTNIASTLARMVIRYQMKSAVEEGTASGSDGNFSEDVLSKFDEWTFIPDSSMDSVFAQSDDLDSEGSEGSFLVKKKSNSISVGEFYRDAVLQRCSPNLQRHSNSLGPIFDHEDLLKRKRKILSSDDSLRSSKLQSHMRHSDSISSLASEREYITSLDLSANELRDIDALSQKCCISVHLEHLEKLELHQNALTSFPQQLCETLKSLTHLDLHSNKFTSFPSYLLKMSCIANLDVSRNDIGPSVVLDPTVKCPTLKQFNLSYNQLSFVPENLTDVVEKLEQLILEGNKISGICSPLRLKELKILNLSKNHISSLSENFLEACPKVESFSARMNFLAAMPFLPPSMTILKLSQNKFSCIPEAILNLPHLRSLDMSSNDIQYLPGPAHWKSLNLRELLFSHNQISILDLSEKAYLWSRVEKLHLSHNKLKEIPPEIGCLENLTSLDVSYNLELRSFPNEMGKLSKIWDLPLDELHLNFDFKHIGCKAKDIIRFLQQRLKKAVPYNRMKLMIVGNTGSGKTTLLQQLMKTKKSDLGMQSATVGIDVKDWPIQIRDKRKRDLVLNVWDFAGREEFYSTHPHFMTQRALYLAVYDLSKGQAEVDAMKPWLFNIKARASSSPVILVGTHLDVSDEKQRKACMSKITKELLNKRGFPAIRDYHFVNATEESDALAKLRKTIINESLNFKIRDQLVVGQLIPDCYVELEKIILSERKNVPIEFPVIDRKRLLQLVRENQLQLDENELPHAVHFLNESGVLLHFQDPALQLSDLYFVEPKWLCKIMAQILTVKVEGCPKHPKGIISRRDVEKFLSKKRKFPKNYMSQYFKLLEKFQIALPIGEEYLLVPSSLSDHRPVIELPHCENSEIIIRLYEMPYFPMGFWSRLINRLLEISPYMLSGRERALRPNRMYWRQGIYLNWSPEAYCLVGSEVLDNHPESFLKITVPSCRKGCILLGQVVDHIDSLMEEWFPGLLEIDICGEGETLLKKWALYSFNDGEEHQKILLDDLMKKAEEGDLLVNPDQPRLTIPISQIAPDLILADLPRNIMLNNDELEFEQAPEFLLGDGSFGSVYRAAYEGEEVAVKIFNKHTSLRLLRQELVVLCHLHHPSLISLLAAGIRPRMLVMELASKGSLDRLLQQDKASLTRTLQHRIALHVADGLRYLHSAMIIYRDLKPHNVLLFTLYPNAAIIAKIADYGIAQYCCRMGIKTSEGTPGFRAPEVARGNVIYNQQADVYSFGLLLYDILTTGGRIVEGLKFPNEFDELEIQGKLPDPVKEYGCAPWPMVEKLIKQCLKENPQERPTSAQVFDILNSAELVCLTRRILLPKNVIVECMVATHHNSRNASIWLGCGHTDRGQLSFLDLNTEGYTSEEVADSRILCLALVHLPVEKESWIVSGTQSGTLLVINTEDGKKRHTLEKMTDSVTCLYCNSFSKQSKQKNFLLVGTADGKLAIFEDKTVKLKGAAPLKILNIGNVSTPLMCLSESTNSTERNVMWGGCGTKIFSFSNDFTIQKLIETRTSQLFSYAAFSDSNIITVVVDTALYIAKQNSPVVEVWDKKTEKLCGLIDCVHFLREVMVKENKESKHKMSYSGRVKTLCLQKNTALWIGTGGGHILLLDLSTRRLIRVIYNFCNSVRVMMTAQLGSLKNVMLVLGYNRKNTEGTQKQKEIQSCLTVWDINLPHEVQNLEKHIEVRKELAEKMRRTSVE

`CN(C(=O)CN1CCOCC1)c1ccc2sc3c(-c4cccc5c(=O)cc(N6CC7CCC(C6)O7)oc45)cccc3c2c1` [NU5455] gave an inhibition at 1 µM of 1.7%.

— paper PMC6934184, “Selective DNA-PKcs inhibition extends the therapeutic index of localized radiotherapy and chemotherapy” (The Journal of Clinical Investigation, 2019)
